The values below come from ChEMBL document CHEMBL1201862, “PubChem BioAssay data set” (2004).

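Cultured in 96-well plates, cells were exposed to test compound for 48 hours across five concentrations. Here, GI50 denotes the concentration required for 50% inhibition of growth.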 Calls of active or inactive are those of the source. Rule as the data show it: active = GI50 up to about 1.1 µM and inactive = higher.

Some test systems named below: 786-0; A498; CAKI-1; DU-145; HCC 2998; Hs-578T; KM12; LOX IMVI; MCF7; Malme-3M; NCI-H522; OVCAR-3; OVCAR-4; SK-MEL-28; SK-OV-3; SNB-19; SNB-75; T47D; TK-10; UACC-257.
Assay in all cases: NCI tumour cell line growth inhibition, 48 h

As to `COc1cc2c(cc1OC)-c1cc3cc(OC)c(OC)cc3c(=O)n1CC2`, the GI50 in the experiment on 786-0 was 23.3 µM (inactive); with A498, 7.59 µM (inactive); in the experiment with CAKI-1, 4.93 µM (inactive); in the experiment on DU-145, 4.57 µM (inactive); in the experiment on HCC 2998, 30.7 µM (inactive); in the experiment with Hs-578T it was 6 µM (inactive). The GI50 with KM12 was > 50.5 µM (inactive); in the experiment on LOX IMVI it was 13.2 µM (inactive); in the experiment with MCF7, 5.89 µM (inactive); in the experiment on Malme-3M, 8.04 µM (inactive); in the experiment with NCI-H522 it was 2.76 µM (inactive); with OVCAR-3 it was 15.7 µM (inactive). The GI50 was 30.3 µM (inactive) in the experiment with OVCAR-4; > 62.1 µM (inactive) in the experiment with SK-MEL-28; 14.1 µM (inactive) in the experiment with SK-OV-3; 20.7 µM (inactive) with SNB-19; 9.4 µM (inactive) in the experiment on SNB-75; 2.58 µM (inactive) with T47D. The values for the GI50 with TK-10 and with UACC-257 were 8.07 µM (inactive) and 26.1 µM (inactive), respectively.
On to `CCOC1OC(CO)C(O)CC1n1ccc(=O)[nH]c1=O` (stereo unspecified), for which the GI50 with 786-0, with A498, in the experiment with CAKI-1, in the experiment on DU-145, in the experiment on HCC 2998 and in the experiment on Hs-578T was > 100 µM (inactive) each time. For the same molecule, the GI50 in the experiment on KM12 is > 100 µM (inactive); with LOX IMVI, > 100 µM (inactive); in the experiment with MCF7, > 100 µM (inactive); in the experiment with Malme-3M it was > 100 µM (inactive); in the experiment on NCI-H522, 30.3 µM (inactive); in the experiment with OVCAR-3, > 100 µM (inactive). For the same molecule, the GI50 in the experiment on OVCAR-4, in the experiment on SK-MEL-28, in the experiment on SNB-19, with SNB-75, in the experiment with T47D and with TK-10 was > 100 µM (inactive) throughout. For the same molecule, the GI50 in the experiment with UACC-257 was > 100 µM (inactive).
Consider `CC(C)C1CSC2N1C(=O)C2(OCc1ccccc1)C1CC1` (stereo unspecified), for which the GI50 in the experiment with 786-0 was > 100 µM (inactive); in the experiment with A498 it was 51.3 µM (inactive); in the experiment on CAKI-1, > 100 µM (inactive); in the experiment on DU-145 it was > 100 µM (inactive); in the experiment on HCC 2998, > 100 µM (inactive); in the experiment on Hs-578T, > 100 µM (inactive). Also, the GI50 with KM12, in the experiment with LOX IMVI, in the experiment with MCF7, in the experiment with Malme-3M, in the experiment with NCI-H522 and with OVCAR-3 was > 100 µM (inactive) each time. Also, the GI50 is > 100 µM (inactive) with OVCAR-4; > 100 µM (inactive) with SK-MEL-28; > 100 µM (inactive) with SK-OV-3; > 100 µM (inactive) with SNB-19; 97.7 µM (inactive) with SNB-75; 97.5 µM (inactive) in the experiment with T47D. Further, the GI50 in the experiment on TK-10 and with UACC-257 was > 100 µM (inactive) each time.
With `CC/C(Cl)=N\OC(=O)Nc1ccc(F)cc1F`, the GI50 is 4.38 µM (inactive) with 786-0; 28.3 µM (inactive) in the experiment with A498; 1.71 µM (inactive) in the experiment on CAKI-1; 17.6 µM (inactive) with DU-145; 19.3 µM (inactive) in the experiment with HCC 2998; 32.2 µM (inactive) with Hs-578T. The GI50 was 19.9 µM (inactive) in the experiment with KM12; 2.5 µM (inactive) with LOX IMVI; 7.78 µM (inactive) in the experiment with MCF7; 2.9 µM (inactive) in the experiment with Malme-3M; 1.54 µM (inactive) with NCI-H522; 17 µM (inactive) in the experiment with OVCAR-3. The GI50 in the experiment with OVCAR-4 is 17.9 µM (inactive); in the experiment on SK-MEL-28, 17.7 µM (inactive); in the experiment on SK-OV-3, 19.3 µM (inactive); with SNB-19 it was 25.4 µM (inactive); in the experiment with SNB-75, 20.6 µM (inactive); in the experiment with T47D, 6.28 µM (inactive). Besides, the GI50 was 12 µM (inactive) with TK-10 and 17.3 µM (inactive) with UACC-257.
As to `CCc1n[nH]c(=O)n1-c1ccncc1`, the GI50 in the experiment on 786-0, in the experiment with A498, in the experiment on CAKI-1, with DU-145, with HCC 2998 and in the experiment on Hs-578T was > 100 µM (inactive) in each case. Further, the GI50 in the experiment on KM12, in the experiment with LOX IMVI, in the experiment with MCF7, in the experiment on Malme-3M, in the experiment on NCI-H522 and in the experiment on OVCAR-3 was > 100 µM (inactive) in each case. For the same molecule, the GI50 in the experiment with OVCAR-4, in the experiment with SK-MEL-28, in the experiment with SNB-19, in the experiment with SNB-75, in the experiment with T47D and in the experiment on TK-10 was > 100 µM (inactive) in each case. In the experiment with UACC-257, the GI50 is > 100 µM (inactive).
`COC(=O)/C(C#N)=C(\Nc1ccccc1)N1CCCC1`: the GI50 in the experiment on 786-0, with A498, in the experiment on CAKI-1, in the experiment on DU-145, in the experiment with HCC 2998 and in the experiment on Hs-578T was > 100 µM (inactive) each time. Further, the GI50 in the experiment with LOX IMVI, in the experiment on MCF7, in the experiment with Malme-3M, with NCI-H522, with OVCAR-3 and in the experiment on OVCAR-4 was > 100 µM (inactive) in each case. The GI50 with SK-MEL-28, in the experiment on SK-OV-3, in the experiment on SNB-19, in the experiment on SNB-75, in the experiment on T47D and in the experiment on TK-10 was > 100 µM (inactive) throughout. The GI50 with UACC-257 was > 100 µM (inactive).
With `O=C1C(Cl)C(c2cc3cc(Br)ccc3nc2Cl)N1c1ccc(F)c(Cl)c1` (stereo unspecified), the GI50 in the experiment on 786-0 is 1.09 µM (active); in the experiment on A498 it was 5.61 µM (inactive); in the experiment with CAKI-1, 0.857 µM (active); in the experiment on DU-145 it was 8.02 µM (inactive); with HCC 2998, 11.7 µM (inactive); with Hs-578T, 20.1 µM (inactive). Besides, the GI50 is 3.21 µM (inactive) with KM12; 0.055 µM (active) with LOX IMVI; 5.96 µM (inactive) in the experiment on MCF7; 11 µM (inactive) with Malme-3M; 0.275 µM (active) in the experiment on NCI-H522; 4.13 µM (inactive) in the experiment on OVCAR-3. For the same molecule, the GI50 with OVCAR-4 was 1.76 µM (inactive); with SK-MEL-28, 14.6 µM (inactive); in the experiment on SK-OV-3, 6.75 µM (inactive); in the experiment on SNB-19 it was 9.73 µM (inactive); in the experiment on SNB-75, 8.61 µM (inactive); with T47D, 8.09 µM (inactive). Further, the GI50 in the experiment with TK-10 was 6.32 µM (inactive); with UACC-257, 11.4 µM (inactive).
With `CC(C)(O)C1OCC(C2CCC3(C)C4=CCC5C(C)(C)C(O)CCC5(C)C4CCC23C)CC1O` (stereo unspecified), the GI50 is 14.2 µM (inactive) in the experiment with 786-0; 16.7 µM (inactive) in the experiment on A498; 16 µM (inactive) with CAKI-1; 17.3 µM (inactive) with DU-145; 16.6 µM (inactive) with HCC 2998; 13.8 µM (inactive) in the experiment with Hs-578T. Besides, the GI50 with KM12 is 14 µM (inactive); with LOX IMVI, 17.9 µM (inactive); with MCF7, 11.6 µM (inactive); in the experiment on Malme-3M, 18.5 µM (inactive); with NCI-H522 it was 11.5 µM (inactive); in the experiment on OVCAR-3 it was 17.1 µM (inactive). Besides, the GI50 in the experiment with OVCAR-4 was 11.8 µM (inactive); in the experiment with SK-MEL-28 it was 15.8 µM (inactive); in the experiment with SK-OV-3 it was 15.8 µM (inactive); with SNB-19 it was 16.4 µM (inactive); with SNB-75, 16.9 µM (inactive); in the experiment on T47D it was 13.7 µM (inactive). The GI50 was 13.2 µM (inactive) in the experiment with TK-10 and 18.4 µM (inactive) with UACC-257.
For `O=c1cc(N2CCOCC2)[nH]c(=O)n1-c1cccc(C(F)(F)F)c1`, the GI50 in the experiment on 786-0, in the experiment with A498, in the experiment with CAKI-1, with DU-145, in the experiment with HCC 2998 and with Hs-578T was > 100 µM (inactive) throughout. For the same molecule, the GI50 with KM12, with LOX IMVI, in the experiment on MCF7, in the experiment with Malme-3M, in the experiment with NCI-H522 and with OVCAR-3 was > 100 µM (inactive) in each case. Further, the GI50 in the experiment on OVCAR-4, with SK-MEL-28, in the experiment with SK-OV-3, in the experiment with SNB-75, with T47D and in the experiment with TK-10 was > 100 µM (inactive) throughout. The GI50 in the experiment with UACC-257 is > 100 µM (inactive).
Regarding `O=C(O)CO/N=C1/C(=C2/C(=O)Nc3ccccc32)Nc2ccccc21`, the GI50 is 63.4 µM (inactive) in the experiment with 786-0; 61.8 µM (inactive) with A498; 25.8 µM (inactive) in the experiment with CAKI-1; 44.3 µM (inactive) in the experiment on DU-145; 33.1 µM (inactive) with HCC 2998; 29.6 µM (inactive) in the experiment with Hs-578T. For the same molecule, the GI50 with KM12 is 2.99 µM (inactive); in the experiment on LOX IMVI, 28.4 µM (inactive); with MCF7 it was 36 µM (inactive); with Malme-3M, 30.5 µM (inactive); in the experiment on NCI-H522 it was 52.6 µM (inactive); with OVCAR-3, 18.8 µM (inactive). The GI50 with OVCAR-4 was 48.5 µM (inactive); in the experiment with SK-MEL-28, 50.8 µM (inactive); in the experiment on SK-OV-3, 22.4 µM (inactive); with SNB-19, > 100 µM (inactive); with SNB-75 it was 27 µM (inactive); in the experiment on T47D, 35.8 µM (inactive). The GI50 in the experiment with TK-10 and in the experiment with UACC-257 was > 100 µM (inactive) in each case.
